This note sets out measurements from patent US9174940B2, “TSH receptor antagonizing tetrahydroquinoline compounds” (Merck Sharp & Dohme B.V., priority 2007, dated 2015).

Assay [1] concerns the target T1, human TSH receptor (Homo sapiens (Human), UniProt P16473). Kind of assay: Antagonist activity against human TSI at the human TSH receptor expressed in CHO cells (CRE-luciferase reporter, rolipram). The format is cell-based. Particulars: stimulated with 3.16 mg/ml human TSI; 10 μM rolipram; CHO cells cultured 16 h without serum. In general terms: In a reporter assay the amount or activity of a reporter protein is the signal.

Assay [2] has as its target T1, human TSH receptor. Description: Antagonist activity against bovine TSH at the human TSH receptor in CHO cells under the TSI assay conditions (CRE-luciferase reporter, rolipram). The format is cell-based. To be noted: stimulated with 18 nM bovine TSH; 10 μM rolipram; CHO cells cultured 16 h without serum.
The target of assay [3] is T1, human TSH receptor. Kind of assay: Antagonist activity against TSH at the human TSH receptor expressed in CHO cells (CRE-luciferase reporter). Particulars: together with 18 nM bovine TSH.
Experimental: Antagonist activity of the compounds against TSH at the human TSH receptor was tested in Chinese Hamster Ovary (CHO) cells stably transfected with a plasmid encoding the human TSH receptor and a second plasmid with a cAMP responsive element (CRE)/promotor directing the expression of a firefly luciferase reporter gene. Binding of bovine TSH to the Gs-coupled TSH receptor will result in an increase of cAMP, which in turn will induce an increased transactivation of the luciferase reporter. Luciferase activity was quantified using a luminescence counter.
For assay [4], the system named is constitutively active human TSHR mutants (Thr632Ile, Ala623Val, Ile568Thr, Asp619Gly and Asp633Glu). Kind of assay: Antagonist activity at constitutively active human TSH receptors expressed in CHO cells (cAMP Alphascreen). The class given is cell-based. To be noted: 10^−6M compound, 10 μM rolipram, transiently transfected CHO cells. Here is the method:
Antagonist activity of two compounds was tested in Chinese Hamster Ovary (CHO) cells transiently transfected with a plasmid encoding one of the 5 most prevalent, constitutively active human TSHR mutants (Thr632Ile, Ala623Val, Ile568Thr, Asp619Gly and Asp633Glu) (van Sande et al. (1995) J. Clin. Endocrinol. Metabol. 80, 2577-2585), which have been identified in autonomously functioning thyroid nodules causing hyperthyroidism. The cells were incubated with 10^−6M of either the compound of example 35 or example 1 in the presence of 10 μM rolipram. Activity of the TSH receptor mutants was quantified using a Packard cAMP Alphascreen assay.
Background: Alpha assays give light when donor and acceptor beads are brought close together.

T1 sequence (P16473 21-764): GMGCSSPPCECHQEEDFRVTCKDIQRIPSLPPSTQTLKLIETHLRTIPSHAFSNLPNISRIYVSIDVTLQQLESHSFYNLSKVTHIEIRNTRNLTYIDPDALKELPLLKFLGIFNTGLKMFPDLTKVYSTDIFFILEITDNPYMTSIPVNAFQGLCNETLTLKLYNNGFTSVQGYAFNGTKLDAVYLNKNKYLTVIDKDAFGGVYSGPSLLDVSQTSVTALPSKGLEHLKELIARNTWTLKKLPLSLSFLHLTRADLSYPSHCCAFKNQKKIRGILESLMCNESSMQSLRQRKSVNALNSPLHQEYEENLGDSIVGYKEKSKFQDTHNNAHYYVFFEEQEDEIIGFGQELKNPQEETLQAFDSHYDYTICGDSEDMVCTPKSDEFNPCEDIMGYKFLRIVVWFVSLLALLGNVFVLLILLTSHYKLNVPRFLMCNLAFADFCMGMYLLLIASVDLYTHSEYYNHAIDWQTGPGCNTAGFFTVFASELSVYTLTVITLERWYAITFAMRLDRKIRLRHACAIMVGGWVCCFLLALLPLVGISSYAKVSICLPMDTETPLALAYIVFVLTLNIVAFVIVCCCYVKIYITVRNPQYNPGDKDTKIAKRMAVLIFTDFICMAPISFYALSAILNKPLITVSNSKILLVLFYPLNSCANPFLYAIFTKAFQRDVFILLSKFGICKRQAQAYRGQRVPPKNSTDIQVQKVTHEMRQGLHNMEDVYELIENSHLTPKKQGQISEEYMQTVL

On to `CC(=O)N1CCC(C)(c2ccccc2)c2cc(NC(=O)OCc3ccc(F)c(Cl)c3)ccc21` (single isomer, unassigned; (+)) [Example 40, (+)-(1-Acetyl-4-methyl-4-phenyl-1,2,3,4-tetrahydro-quinolin-6-yl)-carbamic acid 3-chloro-4-fluoro-benzyl ester], for which the results for the IC50 at human TSH receptor [1] and on human TSH receptor [2] were 47 nM and 192 nM, respectively.

The molecule `CC(=O)N1CCC(C)(c2ccccc2)c2cc(NC(=O)OCC3(C)CC3)ccc21` (stereo not drawn) [Example 28, (1-Acetyl-4-methyl-4-phenyl-1,2,3,4-tetrahydro-quinolin-6-yl)-carbamic acid 1-methyl-cyclopropylmethyl ester] registered an IC50 against human TSH receptor [3] of less than 100 nM.

As for `CC(=O)N1c2ccc(NC(=O)c3ccccn3)cc2C(C)(c2ccccc2)CC1(C)C` (stereo not drawn) [Example 4, Pyridine-2-carboxylic acid (1-acetyl-2,2,4-trimethyl-4-phenyl-1,2,3,4-tetrahydro-quinolin-6-yl)-amide], at human TSH receptor [3], the 50% inhibitory concentration (IC50) is less than 100 nM.

Consider `CC(=O)N1CCC(C)(c2ccccc2)c2cc(NC(=O)OCCC(C)C)ccc21` (stereo not drawn) [Example 27, (1-Acetyl-4-methyl-4-phenyl-1,2,3,4-tetrahydro-quinolin-6-yl)-carbamic acid 3-methyl-butyl ester], for which the IC50 at human TSH receptor [3] was less than 100 nM.

As to `CC(=O)N1c2ccc(NC(=O)OCCOc3ccccc3)cc2C(C)(c2ccccc2)CC1(C)C` (stereo not drawn) [Example 6, (1-Acetyl-2,2,4-trimethyl-4-phenyl-1,2,3,4-tetrahydro-quinolin-6-yl)-carbamic acid 2-phenoxy-ethyl ester], at human TSH receptor [3], the IC50 was less than 100 nM.

On human TSH receptor [3], `CC(=O)N1CCC(C)(c2ccccc2)c2cc(NC(=O)OCC3CCC3)ccc21` (stereo not drawn) [Example 29, (1-Acetyl-4-methyl-4-phenyl-1,2,3,4-tetrahydro-quinolin-6-yl)-carbamic acid cyclobutylmethyl ester] returned an IC50 of less than 100 nM.

Regarding `CC(=O)N1CCC(C)(c2ccccc2)c2cc(NC(=O)OCc3ccc(F)c(Cl)c3)ccc21` (stereo not drawn) [Example 34, (1-Acetyl-4-methyl-4-phenyl-1,2,3,4-tetrahydro-quinolin-6-yl)-carbamic acid 3-chloro-4-fluoro-benzyl ester], the IC50 against human TSH receptor [3] is less than 100 nM.

As to `CC(=O)N1CCC(C)(c2ccccc2)c2cc(NC(=O)OC3CCCC3)ccc21` (single isomer, unassigned; (+)) [Example 39], the IC50 came to 12 nM against human TSH receptor [1] and 48 nM against human TSH receptor [2].

Regarding “(1-Acetyl-4-methyl-4-phenyl-1,2,3,4,4a,8a-hexahydro-quinolin-6-yl)-carbamic acid cyclopentyl ester [Example 32]”, the IC50 at human TSH receptor [3] was less than 100 nM.

Consider `CC(=O)N1CCC(C)(c2ccccc2)c2cc(NC(=O)c3ccc(Br)s3)ccc21` (stereo not drawn) [Example 35, 5-Bromo-thiophene-2-carboxylic acid (1-acetyl-4-methyl-4-phenyl-1,2,3,4-tetrahydro-quinolin-6-yl)-amide], for which, in assay [4], the “inhibition of constitutive activity of all 5 receptor mutants” value is listed as more than 80%.

`CCCCCC(=O)Nc1ccc2c(c1)C(C)(c1ccccc1)CC(C)(C)N2C(C)=O` (stereo not drawn) [Example 1, Hexanoic acid (1-acetyl-2,2,4-trimethyl-4-phenyl-1,2,3,4-tetrahydro-quinolin-6-yl)-amide]: the IC50 against human TSH receptor [1] was 88 nM; against human TSH receptor [3], less than 100 nM; at human TSH receptor [2], 368 nM. In addition, the “inhibition of constitutive activity of all 5 receptor mutants” value in assay [4] is more than 80%.

The molecule `CCCCOC(=O)Nc1ccc2c(c1)C(C)(c1ccccc1)CC(C)(C)N2C(C)=O` (stereo not drawn) [Example 7, (1-Acetyl-2,2,4-trimethyl-4-phenyl-1,2,3,4-tetrahydro-quinolin-6-yl)-carbamic acid butyl ester] showed an IC50 on human TSH receptor [3] of less than 100 nM.

As to `CC(=O)N1c2ccc(NC(=O)CCc3cccc(Cl)c3)cc2C(C)(c2ccccc2)CC1(C)C` (stereo not drawn) [Example 26, N-(1-Acetyl-2,2,4-trimethyl-4-phenyl-1,2,3,4-tetrahydro-quinolin-6-yl)-3-(3-chloro-phenyl)-propionamide], the IC50 at human TSH receptor [3] was less than 100 nM.

A word on the IC50: it is the midpoint of a concentration-inhibition curve.
